A compilation of properties of binary mixtures (doi:10.1007/s10953-014-0257-1)

Test: xn = mol fraction of the nth substance listed
Conditions: 101 kPa

c1ccc2sccc2c1 + CCCC[N+]1(C)CCCC1.N#C[C-](C#N)C#N
x1 = 1
Conditions	viscosity [mPa·s]
308.15 K	2.94
318.15 K	2.06
328.15 K	1.74
338.15 K	1.49
348.15 K	1.29
358.15 K	1.14

CCCC[N+]1(C)CCCC1.N#C[C-](C#N)C#N + c1ccc2sccc2c1
viscosity [mPa·s]
Conditions	x2 = 0	x2 = 0.1112	x2 = 0.2212	x2 = 0.3565	x2 = 0.5267	x2 = 0.6111	x2 = 0.6767
308.15 K	–	18.8	17	14.78	–	10.45	9.23
318.15 K	15.44	14.1	12.77	11.13	9.01	7.87	6.89
328.15 K	12	10.97	9.95	8.69	–	6.19	5.41
338.15 K	9.59	8.77	7.96	–	5.68	4.98	4.36
348.15 K	7.81	7.16	6.49	5.67	4.65	4.1	3.59
358.15 K	6.47	5.93	5.38	4.74	3.88	3.44	3.03
